Experimental data reported in ChEMBL document CHEMBL4706539 (Eur J Med Chem, 2020).
Calls of active or inactive are those of the source. No cut-off for these calls is given here.

Tests used:
[1] = tested on: COLO357; experiment: Antiproliferative activity against human COLO357 cells assessed as reduction in cell growth incubated for 72 hrs by MTT assay; type: functional, cell-based; details: COLO357, 72 h
[2] = tested on: HEK293; experiment: Cytotoxicity against human HEK293 cells assessed as reduction in cell growth incubated for 72 hrs by MTT assay; type: cell-based; details: HEK293, 72 h
[3] = tested on: SW-620; experiment: Antiproliferative activity against human SW-620 cells assessed as reduction in cell growth incubated for 72 hrs by MTT assay; type: functional, cell-based; details: SW-620, 72 h
[4] = tested on: Raji; experiment: Antiproliferative activity against human Raji cells assessed as reduction in cell growth incubated for 72 hrs by MTT assay; type: functional, cell-based
[5] = Acute toxicity in C57BL/6 mouse assessed as mouse death at 5 mg/kg, iv measured after 16 hrs; type: organism-based; details: in vivo
[6] = Acute toxicity in iv dosed A/Sn mouse assessed as mouse death at 5 mg/kg, iv measured after 16 hrs; type: organism-based; details: in vivo
[7] = Acute toxicity in iv dosed CBA mouse assessed as mouse death at 5 mg/kg, iv measured after 16 hrs; type: organism-based; details: in vivo
[8] = Acute toxicity in iv dosed C57BL/6 mouse assessed as lethal dose; type: organism-based; details: in vivo
[9] = tested on: HeLa; experiment: cells; details: Homo sapiens, 72 h
Description: Antiproliferative activity against human HeLa cells assessed as reduction in cell growth incubated for 72 hrs by MTT assay

[10] = Acute toxicity in iv dosed CD-1 mouse assessed as mouse death at 5 mg/kg, iv measured after 16 hrs; type: organism-based; details: in vivo
[11] = Acute toxicity in iv dosed BALB/c mouse assessed as mouse death at 5 mg/kg, iv measured after 16 hrs; type: organism-based; details: in vivo
[12] = tested on: HaCaT; experiment: Cytotoxicity against human HaCat cells assessed as reduction in cell growth incubated for 72 hrs by MTT assay; type: cell-based
[13] = tested on: PANC-1; experiment: Antiproliferative activity against human PANC-1 cells assessed as reduction in cell growth incubated for 72 hrs by MTT assay; type: functional, cell-based; details: PANC-1, 72 h
[14] = tested on: COLO357; experiment: Induction of cell cycle arrest in human COLO357 cells assessed as accumulation at G2/M phase at 5 nM incubated for 48 hrs by RNase/PI staining based flow cytometry analysis (reference value: 13 %); type: functional
[15] = tested on: SW-620; experiment: Induction of cell cycle arrest in human SW-620 cells assessed as accumulation at G1 phase at 5 nM incubated for 48 hrs by RNase/PI staining based flow cytometry analysis (reference value: 65 %); type: functional
[16] = tested on: COLO357; experiment: Induction of cell cycle arrest in human COLO357 cells assessed as accumulation at G1 phase at 5 nM incubated for 48 hrs by RNase/PI staining based flow cytometry analysis (reference value: 72 %); type: functional
[17] = tested on: SW-620; experiment: Induction of cell cycle arrest in human SW-620 cells assessed as accumulation at G2/M phase at 5 nM incubated for 48 hrs by RNase/PI staining based flow cytometry analysis (reference value: 16 %); type: functional
[18] = tested on: SW-620; experiment: Induction of cell cycle arrest in human SW-620 cells assessed as accumulation at apoptotic phase at 5 nM incubated for 48 hrs by RNase/PI staining based flow cytometry analysis (reference value: 0.8 %); type: functional
[19] = tested on: COLO357; experiment: Induction of cell cycle arrest in human COLO357 cells assessed as accumulation at apoptotic phase at 5 nM incubated for 48 hrs by RNase/PI staining based flow cytometry analysis (reference value: 1.3 %); type: functional
[20] = Acute toxicity in mouse assessed as lethal dose measured after 7 days; details: in vivo, time 7 day
[21] = biological target: T1, Tubulin (Homo sapiens) (UniProt P68371+Q9H4B7+P0DPH7+P68366+Q13509+Q71U36+P04350+Q3ZCM7+P07437+P68363+Q9BQE3+Q6PEY2+Q13885+Q9BVA1+Q9BUF5); experiment: Inhibition of tubulin assembly in human SW-620 cells assessed as induction of chromosome disturbance at 5 nM incubated for 24 hrs by Hoechst 33342 staining based confocal microscopic analysis; type: cell-based
[22] = biological target: T1, Tubulin (Homo sapiens); experiment: Inhibition of tubulin assembly in human SW-620 cells assessed as induction of tubulin dissipation at 5 nM incubated for 24 hrs by Hoechst 33342 staining based confocal microscopic analysis; type: cell-based
[23] = biological target: T1, Tubulin (Homo sapiens); experiment: Inhibition of tubulin assembly in human COLO357 cells assessed as induction of chromosome disturbance at 5 nM incubated for 24 hrs by Hoechst 33342 staining based confocal microscopic analysis; type: cell-based
[24] = biological target: T1, Tubulin (Homo sapiens); experiment: Inhibition of tubulin assembly in human COLO357 cells assessed as induction of tubulin dissipation at 5 nM incubated for 24 hrs by Hoechst 33342 staining based confocal microscopic analysis; type: cell-based
[25] = organism: Ovis aries; experiment: Inhibition of lamb brain tubulin polymerization assessed as reduction in microtubule assembly at 0.5 to 5 uM incubated for 40 mins at […] by spectrophotometric analysis relative to control; type: tissue-based; details: dose 0.5-5 µM
[26] = Acute toxicity in C57BL/6 mouse assessed as mouse death at 10 mg/kg, iv; type: organism-based; details: in vivo
[27] = biological target: T1, Tubulin (Homo sapiens); experiment: Inhibition of tubulin assembly in human SW-620 cells assessed as disruption of mitotic spindle at 5 nM incubated for 24 hrs by Hoechst 33342 staining based confocal microscopic analysis; type: cell-based
[28] = biological target: T1, Tubulin (Homo sapiens); experiment: Inhibition of tubulin assembly in human COLO357 cells assessed as disruption of mitotic spindle at 5 nM incubated for 24 hrs by Hoechst 33342 staining based confocal microscopic analysis; type: cell-based

| Compound | IC50 [1] | IC50 [2] | IC50 [3] | IC50 [4] | IC50 [9] | IC50 [12] | IC50 [13] | also measured |
| --- | --- | --- | --- | --- | --- | --- | --- | --- |
| C/C=C/C(=O)Oc1cc2c(cc1I)-c1c(cc(OC)c(OC)c1OC)CC[C@@H]2NC(C)=O | 161 nM | > 4000 nM | 4 nM | 139 nM |  |  |  |  |
| C=C1c2cc3c(cc2OC1(F)F)[C@@H](NC(C)=O)CCc1cc(OC)c(OC)c(OC)c1-3 | 0.02 nM | 0.03 nM | 0.04 nM | 0.05 nM | 0.03 nM | 0.03 nM | 0.01 nM | Activity [5]: Non-Toxic; Activity [6]: Non-Toxic; Activity [7]: Non-Toxic; LD50 [8]: > 10 mg/kg; Activity [10]: Non-Toxic; Activity [11]: Non-Toxic |
| COc1cc2c(c(OC)c1OC)-c1cc3c(C)cc(=O)oc3cc1[C@@H](NC(C)=O)CC2 | 160 nM | 32 nM | 140 nM | 16 nM |  |  |  |  |
| CC/C=C1/COc2cc3c(cc21)-c1c(cc(OC)c(OC)c1OC)CC[C@@H]3NC(C)=O | 800 nM | 166 nM | 810 nM | 90 nM | 150 nM | 135 nM | 80 nM |  |
| COc1cc2c(c(OC)c1OC)-c1ccc(OC)c(=O)cc1[C@@H](NC(C)=O)CC2 [COLCHICINE] |  |  | 2.4 nM | 16 nM | 1.3 nM | 0.3 nM | 0.1 nM | Activity [14]: 31%; Activity [5]: Toxic; Activity [6]: Toxic; Activity [7]: Toxic; Activity [15]: 7.4%; Activity [16]: 62%; Activity [17]: 74%; Activity [18]: 8.1%; Activity [19]: 2%; LD50 at 168 h [20]: 1.6 mg/kg; Activity [10]: Toxic; Activity [11]: Toxic |
| COc1cc2c(c(OC)c1OC)-c1cc(I)c(OC(=O)C=C(C)C)cc1[C@@H](NC(C)=O)CC2 | 160 nM | 805 nM | 32 nM | 160 nM |  |  |  |  |
| COc1cc(-c2cc(=O)oc3cc4c(cc23)-c2c(cc(OC)c(OC)c2OC)CC[C@@H]4NC(C)=O)ccc1O | 870 nM | 4000 nM | 160 nM | 837 nM |  |  |  |  |
| COC(=O)/C=C/c1cc2c(cc1O)[C@@H](NC(C)=O)CCc1cc(OC)c(OC)c(OC)c1-2 | > 4000 nM | > 4000 nM | > 4000 nM | > 4000 nM |  |  |  |  |
| COc1cc2c(c(OC)c1OC)-c1cc(I)c(OC(=O)/C=C/Cl)cc1[C@@H](NC(C)=O)CC2 | 810 nM | 810 nM | 800 nM | 825 nM |  |  |  |  |
| COc1cc2c(c(OC)c1OC)-c1cc3c(cc1[C@@H](NC(C)=O)CC2)OCC3=C(C)C | 860 nM | 400 nM | 780 nM | 420 nM | 410 nM | 390 nM | 850 nM |  |
| COC(=O)Cc1coc2cc3c(cc12)-c1c(cc(OC)c(OC)c1OC)CC[C@@H]3NC(C)=O | 830 nM | 4420 nM | 4100 nM | 3900 nM | 805 nM | 810 nM | 820 nM |  |
| C/C=C1/COc2cc3c(cc21)-c1c(cc(OC)c(OC)c1OC)CC[C@@H]3NC(C)=O | 5 nM | 3.8 nM | 6 nM | 3.8 nM | 32 nM | 14 nM | 32 nM |  |
| C=C1COc2cc3c(cc21)-c1c(cc(OC)c(OC)c1OC)CC[C@@H]3NC(C)=O | 0.04 nM | 0.08 nM | 0.02 nM | 0.03 nM | 1.7 nM | 0.3 nM | 0.08 nM | inhibition [21]: Active; inhibition [22]: Active; Activity [14]: 77%; Activity [5]: Non-Toxic; Activity [6]: Non-Toxic; Activity [7]: Non-Toxic; Activity [15]: 12%; LD50 [8]: 10 mg/kg; inhibition [23]: Active; inhibition [24]: Active; inhibition [25]: 50%; Activity [16]: 18%; Activity [17]: 76%; Activity [18]: 4%; Activity [19]: 2%; Activity [26]: Toxic; inhibition [27]: Active; Activity [10]: Non-Toxic; Activity [11]: Non-Toxic; inhibition [28]: Active |
| COc1cc2c(c(OC)c1OC)-c1cc3c(cc1[C@@H](NC(C)=O)CC2)OC/C3=C\c1ccccc1 | > 20000 nM | > 20000 nM | > 20000 nM | 4600 nM | 4020 nM | 4370 nM | > 20000 nM |  |
| COc1cc2c(c(OC)c1OC)-c1cc3c(cc1[C@@H](NC(C)=O)CC2)OC/C3=C(\C)CCC=C(C)C | 4330 nM | 4280 nM | > 20000 nM | 800 nM | 4250 nM | 4500 nM | 810 nM |  |
| COc1cc2c(c(OC)c1OC)-c1cc3c(C)coc3cc1[C@@H](NC(C)=O)CC2 | 1.3 nM | 5 nM | 1.3 nM | 1.3 nM | 0.8 nM | 0.5 nM | 2.1 nM |  |
| C=CC(=O)Oc1cc2c(cc1I)-c1c(cc(OC)c(OC)c1OC)CC[C@@H]2NC(C)=O | 150 nM | 158 nM | 30 nM | 32 nM |  |  |  |  |
| COc1cc2c(c(OC)c1OC)-c1cc(I)c(OC(=O)/C=C/C(F)(F)F)cc1[C@@H](NC(C)=O)CC2 | 30 nM | 170 nM | 6 nM | 180 nM |  |  |  |  |
